6 molecules from ChEMBL document CHEMBL3997806, “Inhibition of veratridine-induced delayed inactivation of the voltage-sensitive sodium channel by synthetic analogs of crambescin B” (Bioorg Med Chem Lett, 2017) can be followed below.

The target in experiment [1] is Sodium channel protein type 9 subunit alpha (Homo sapiens) (UniProt Q15858). The experiment can be described thus: Antagonist activity at human Nav1.7 expressed in HEK293T cells assessed as inhibition of VTD-induced sustained current at 1 uM by whole cell patch clamp method relative to control. Particulars: HEK-293T. Type of experiment: cell-based.
The target of experiment [2] is Sodium channel protein type 8 subunit alpha (Homo sapiens) (UniProt Q9UQD0). Kind of experiment: Antagonist activity at human Nav1.6 expressed in HEK293T cells assessed as inhibition of VTD-induced peak current at 1 uM by whole cell patch clamp method relative to control. In kind it is cell-based. The following applies: HEK-293T. In general terms: In patch-clamp work, channel activity is measured electrically.
Chain of Sodium channel protein type 8 subunit alpha (Homo sapiens) (Q9UQD0 whole entry, looked up): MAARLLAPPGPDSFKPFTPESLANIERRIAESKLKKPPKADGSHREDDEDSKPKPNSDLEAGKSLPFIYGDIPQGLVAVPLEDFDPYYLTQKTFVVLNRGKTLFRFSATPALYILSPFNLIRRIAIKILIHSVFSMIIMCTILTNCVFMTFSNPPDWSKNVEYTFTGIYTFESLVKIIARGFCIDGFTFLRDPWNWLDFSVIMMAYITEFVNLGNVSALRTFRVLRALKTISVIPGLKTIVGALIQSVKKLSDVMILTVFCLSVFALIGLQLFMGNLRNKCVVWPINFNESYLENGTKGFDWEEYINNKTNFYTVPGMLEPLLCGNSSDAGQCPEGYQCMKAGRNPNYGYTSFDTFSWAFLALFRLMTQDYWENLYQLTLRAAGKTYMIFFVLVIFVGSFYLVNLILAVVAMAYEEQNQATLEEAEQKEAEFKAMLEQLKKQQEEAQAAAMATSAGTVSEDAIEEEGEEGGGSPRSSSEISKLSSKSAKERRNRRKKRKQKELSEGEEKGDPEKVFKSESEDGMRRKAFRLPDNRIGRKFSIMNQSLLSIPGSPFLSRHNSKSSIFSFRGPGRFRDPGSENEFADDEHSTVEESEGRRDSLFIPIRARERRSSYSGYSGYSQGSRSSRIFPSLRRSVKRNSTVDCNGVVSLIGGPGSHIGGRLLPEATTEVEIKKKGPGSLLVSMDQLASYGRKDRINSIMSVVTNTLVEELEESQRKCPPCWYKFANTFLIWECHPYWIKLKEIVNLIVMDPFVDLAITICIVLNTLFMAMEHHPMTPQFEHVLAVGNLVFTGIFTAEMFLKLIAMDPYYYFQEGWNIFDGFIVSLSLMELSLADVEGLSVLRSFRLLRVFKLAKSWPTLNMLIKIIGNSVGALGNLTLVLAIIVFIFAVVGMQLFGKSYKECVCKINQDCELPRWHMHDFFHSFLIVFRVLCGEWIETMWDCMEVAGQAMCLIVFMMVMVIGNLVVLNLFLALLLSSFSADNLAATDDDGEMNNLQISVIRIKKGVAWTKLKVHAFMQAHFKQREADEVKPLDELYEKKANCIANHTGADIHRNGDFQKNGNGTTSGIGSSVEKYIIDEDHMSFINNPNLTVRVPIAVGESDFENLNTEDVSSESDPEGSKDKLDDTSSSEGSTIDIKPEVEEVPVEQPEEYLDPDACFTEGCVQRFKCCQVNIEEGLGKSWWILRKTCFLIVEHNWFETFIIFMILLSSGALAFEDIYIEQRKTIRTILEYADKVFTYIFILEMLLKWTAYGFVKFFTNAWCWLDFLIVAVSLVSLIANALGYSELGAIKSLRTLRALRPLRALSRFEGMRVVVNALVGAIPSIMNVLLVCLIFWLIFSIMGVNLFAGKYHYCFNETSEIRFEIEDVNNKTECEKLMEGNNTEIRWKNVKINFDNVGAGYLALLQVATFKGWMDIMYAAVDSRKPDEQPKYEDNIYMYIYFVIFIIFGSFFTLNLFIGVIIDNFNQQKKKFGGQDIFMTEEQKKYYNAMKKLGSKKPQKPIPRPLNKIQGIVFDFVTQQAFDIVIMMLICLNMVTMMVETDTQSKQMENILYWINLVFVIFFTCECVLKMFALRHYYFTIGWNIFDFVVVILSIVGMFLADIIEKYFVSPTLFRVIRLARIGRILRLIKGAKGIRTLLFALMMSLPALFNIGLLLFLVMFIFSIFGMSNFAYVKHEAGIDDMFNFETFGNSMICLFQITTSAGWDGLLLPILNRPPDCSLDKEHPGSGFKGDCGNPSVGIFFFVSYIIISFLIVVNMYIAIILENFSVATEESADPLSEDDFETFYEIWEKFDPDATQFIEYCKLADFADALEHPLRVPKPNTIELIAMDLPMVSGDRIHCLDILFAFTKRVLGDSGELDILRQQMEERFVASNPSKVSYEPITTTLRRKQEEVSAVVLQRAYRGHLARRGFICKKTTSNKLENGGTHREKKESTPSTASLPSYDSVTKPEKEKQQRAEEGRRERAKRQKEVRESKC

Experiment [3] deals with Sodium channel protein type 9 subunit alpha (Homo sapiens) (UniProt Q15858). Kind of experiment: Antagonist activity at human Nav1.7 expressed in HEK293T cells assessed as inhibition of VTD-induced tail current at 1 uM at holding potential of -100mV by whole cell patch clamp method relative to control. In kind it is cell-based. Particulars: HEK-293T.
In experiment [4] the target is Sodium channel protein type 8 subunit alpha (Homo sapiens) (UniProt Q9UQD0). Kind of experiment: Antagonist activity at human Nav1.6 expressed in HEK293T cells assessed as inhibition of VTD-induced sustained current at 1 uM by whole cell patch clamp method relative to control. Type of experiment: cell-based. Particulars: HEK-293T.
Experiment [5] deals with Sodium channel protein type 9 subunit alpha (Homo sapiens) (UniProt Q15858). The experiment can be described thus: Antagonist activity at human Nav1.7 expressed in HEK293T cells assessed as inhibition of VTD-induced peak current at 1 uM by whole cell patch clamp method relative to control. Particulars: HEK-293T. In kind it is cell-based.
For experiment [6], the target named is Sodium channel protein type 8 subunit alpha (Homo sapiens) (UniProt Q9UQD0). Kind of experiment: Antagonist activity at human Nav1.6 expressed in HEK293T cells assessed as inhibition of VTD-induced tail current at 1 uM at holding potential of -100mV by whole cell patch clamp method relative to control. Type of experiment: cell-based. The following applies: HEK-293T.

In experiment [7] the target is T1, Sodium channel protein type 2 subunit alpha (Homo sapiens, UniProt Q99250). Kind of experiment: Antagonist activity at human Nav1.2 expressed in HEK293T cells assessed as inhibition of VTD-induced peak current up to 10 nM by whole cell patch clamp method relative to control. Type of experiment: cell-based. The following applies: HEK-293T.
Target sequence in this assay (Q99250 whole entry, looked up): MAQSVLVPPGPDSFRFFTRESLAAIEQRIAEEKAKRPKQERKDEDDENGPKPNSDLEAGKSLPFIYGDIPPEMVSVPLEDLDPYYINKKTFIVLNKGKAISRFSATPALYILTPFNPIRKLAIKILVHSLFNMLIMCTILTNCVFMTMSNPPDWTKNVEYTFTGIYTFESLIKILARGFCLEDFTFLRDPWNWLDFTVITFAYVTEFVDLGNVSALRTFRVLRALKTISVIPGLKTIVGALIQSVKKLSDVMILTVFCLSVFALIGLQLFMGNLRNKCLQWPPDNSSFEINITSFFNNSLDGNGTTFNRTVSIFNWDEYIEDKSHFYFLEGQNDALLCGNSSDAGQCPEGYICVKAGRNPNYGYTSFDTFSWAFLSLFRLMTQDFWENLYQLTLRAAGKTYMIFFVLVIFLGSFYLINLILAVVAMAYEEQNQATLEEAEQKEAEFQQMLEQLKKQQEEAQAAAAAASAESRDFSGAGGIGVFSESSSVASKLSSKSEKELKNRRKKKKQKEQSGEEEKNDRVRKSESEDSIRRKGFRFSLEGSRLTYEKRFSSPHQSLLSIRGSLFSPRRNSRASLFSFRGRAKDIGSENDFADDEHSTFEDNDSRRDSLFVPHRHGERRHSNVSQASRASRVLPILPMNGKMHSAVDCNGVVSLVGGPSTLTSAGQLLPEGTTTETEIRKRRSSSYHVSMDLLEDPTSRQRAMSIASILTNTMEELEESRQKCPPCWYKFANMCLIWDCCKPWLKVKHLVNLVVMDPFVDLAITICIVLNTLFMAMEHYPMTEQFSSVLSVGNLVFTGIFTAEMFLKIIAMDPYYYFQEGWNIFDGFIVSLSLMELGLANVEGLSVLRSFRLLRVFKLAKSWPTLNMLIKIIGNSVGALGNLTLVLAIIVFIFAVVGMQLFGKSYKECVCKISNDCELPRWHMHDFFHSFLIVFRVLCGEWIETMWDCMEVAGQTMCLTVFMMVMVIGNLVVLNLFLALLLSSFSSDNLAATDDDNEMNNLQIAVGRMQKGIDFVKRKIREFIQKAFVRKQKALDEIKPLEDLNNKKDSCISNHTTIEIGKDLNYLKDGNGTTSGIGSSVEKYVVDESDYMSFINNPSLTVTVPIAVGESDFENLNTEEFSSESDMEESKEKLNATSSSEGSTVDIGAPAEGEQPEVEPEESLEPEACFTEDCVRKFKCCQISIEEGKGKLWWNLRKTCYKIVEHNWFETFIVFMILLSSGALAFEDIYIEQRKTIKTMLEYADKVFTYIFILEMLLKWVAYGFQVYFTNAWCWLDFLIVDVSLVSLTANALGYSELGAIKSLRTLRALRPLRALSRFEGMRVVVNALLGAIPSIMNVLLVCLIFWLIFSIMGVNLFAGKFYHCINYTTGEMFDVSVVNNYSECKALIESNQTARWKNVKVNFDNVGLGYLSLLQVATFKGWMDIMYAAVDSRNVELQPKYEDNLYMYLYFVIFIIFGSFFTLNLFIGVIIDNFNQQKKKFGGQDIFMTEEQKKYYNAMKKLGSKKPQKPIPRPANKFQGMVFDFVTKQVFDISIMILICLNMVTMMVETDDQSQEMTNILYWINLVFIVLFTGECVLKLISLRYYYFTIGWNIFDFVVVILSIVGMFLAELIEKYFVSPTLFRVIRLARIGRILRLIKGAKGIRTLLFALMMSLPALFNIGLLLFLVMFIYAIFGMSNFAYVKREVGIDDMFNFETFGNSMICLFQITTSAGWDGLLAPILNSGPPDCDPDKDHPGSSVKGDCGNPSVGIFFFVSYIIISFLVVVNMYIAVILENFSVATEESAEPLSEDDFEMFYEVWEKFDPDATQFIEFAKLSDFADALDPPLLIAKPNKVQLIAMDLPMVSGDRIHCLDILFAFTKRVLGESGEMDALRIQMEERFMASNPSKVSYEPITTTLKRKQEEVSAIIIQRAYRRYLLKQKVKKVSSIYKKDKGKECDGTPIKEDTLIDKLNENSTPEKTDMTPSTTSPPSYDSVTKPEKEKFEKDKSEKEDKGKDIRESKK
Experiment [8] has as its target T1, Sodium channel protein type 2 subunit alpha. The experiment can be described thus: Antagonist activity at human Nav1.2 expressed in HEK293T cells assessed as inhibition of VTD-induced tail current by whole cell patch clamp method relative to control. In kind it is cell-based, HEK-293T. Particulars: for inhibition: HEK-293T.
Experiment [9] shares this target. Kind of experiment: Ratio of IC50 for Nav1.2 (unknown origin) by cell based assay to IC50 for human Nav1.2 expressed in HEK293T cells assessed as inhibition of VTD-induced tail current.
Target sequence in this assay (Q99250 whole entry, looked up): as above
Experiment [10] shares this target. Kind of experiment: Inhibition of Nav1.2 (unknown origin) by cell based assay.
Target sequence in this assay (Q99250 whole entry): as the sequence (Q99250 whole entry, looked up) above
The target is the same in experiment [11]. The experiment can be described thus: Antagonist activity at human Nav1.2 expressed in HEK293T cells assessed as inhibition of VTD-induced sustained current by whole cell patch clamp method relative to control. The following applies: for inhibition: HEK-293T. Type of experiment: cell-based, HEK-293T.
Experiment [12] shares this target. Kind of experiment: Ratio of IC50 for Nav1.2 (unknown origin) by cell based assay to IC50 for human Nav1.2 expressed in HEK293T cells assessed as inhibition of VTD-induced sustained current.
Target sequence in this assay (Q99250 whole entry, looked up): as above
The species entered for experiment [13] is Mus musculus. The experiment can be described thus: Antagonist activity at VSSC in mouse Neuro2a cells assessed as inhibition of peak current at holding potential of -100mV at 100 nM by patch-clamp method. In kind it is cell-based.
In experiment [14] the target is Sodium channel protein type 9 subunit alpha (Homo sapiens) (UniProt Q15858). Particulars: HEK-293T, 30 nM.
Description: Antagonist activity at human Nav1.7 expressed in HEK293T cells assessed as inhibition of VTD-induced peak current at 30 nM by whole cell patch clamp method relative to control
For experiment [15] the target is unchanged. Particulars: HEK-293T, 30 nM. The source holds these as a separate data set.
Description: Antagonist activity at human Nav1.7 expressed in HEK293T cells assessed as inhibition of VTD-induced tail current at 30 nM at holding potential of -100mV by whole cell patch clamp method relative to control
For experiment [16] the target is unchanged. The following applies: HEK-293T, 30 nM. The source holds these as a separate data set.
Description: Antagonist activity at human Nav1.7 expressed in HEK293T cells assessed as inhibition of VTD-induced sustained current at 30 nM by whole cell patch clamp method relative to control
Experiment [17] has as its target Sodium channel protein type 8 subunit alpha (Homo sapiens) (UniProt Q9UQD0). The following applies: HEK-293T, 30 nM.
Description: Antagonist activity at human Nav1.6 expressed in HEK293T cells assessed as inhibition of VTD-induced sustained current at 30 nM by whole cell patch clamp method relative to control
The target is the same in experiment [18]. The following applies: HEK-293T, 30 nM. This is another data set of the same source.
Description: Antagonist activity at human Nav1.6 expressed in HEK293T cells assessed as inhibition of VTD-induced peak current at 30 nM by whole cell patch clamp method relative to control
For experiment [19] the target is unchanged. The following applies: HEK-293T, 30 nM. This is another data set of the same source.
Description: Antagonist activity at human Nav1.6 expressed in HEK293T cells assessed as inhibition of VTD-induced tail current at 30 nM at holding potential of -100mV by whole cell patch clamp method relative to control

Activity calls are given as the source filed them. No cut-off for these calls is given here.

For the molecule `CCCCCCCCCCC1NC(=N)NC2(CCCO2)C1C(=O)O` (racemic), the inhibition result in experiment [1], in [2], in [3], in experiment [4], in experiment [5] and in experiment [6] was “Active” in each case.

A word on the IC50: it is the midpoint of a concentration-inhibition curve. By EC50 is commonly meant the concentration needed to bring the measured effect to its halfway point. Read a low EC50 as a more potent agent. Regarding `CCCCCCCCCC[C@H]1C[C@@]2(CCCO2)NC(=N)N1`, in experiment [7], the inhibition entry is “Active”. For the same molecule, in [8], the IC50 turned out to be 2 nM and the inhibition result is “Dose-dependent effect”. Moreover, the Ratio IC50 in experiment [9] is 60. The same molecule came in with an EC50 in [10] of 120 nM. Also, in [11], the IC50 came out at 2.1 nM and the inhibition result was “Dose-dependent effect”.

Take `CCCCCCCCCC[C@@H]1C[C@]2(CCCO2)NC(=N)N1`: the Ratio IC50 in [12] worked out at 43. For the same molecule, the 50% inhibitory concentration (IC50) in experiment [8] came to 0.28 nM; in experiment [11], 0.45 nM. Moreover, the inhibition entry in [8] and in [11] was “Dose-dependent effect” each time. In [10], a half-maximal effect (EC50) was put at 12 nM.

Consider `CCCCCCCCCC[C@@H]1NC(=N)N[C@]2(CCCO2)[C@@H]1C(=O)O`, for which the inhibition entry in experiment [13] was “inactive”. In addition, the inhibition result in [7] was “Active”. In [8], the IC50 worked out at 35 nM and the inhibition entry is “Dose-dependent effect”. Besides, the EC50 in [10] is 79 nM. In experiment [11], the IC50 was determined as 7.5 nM and the inhibition result was “Dose-dependent effect”.

Consider `NC1=N[C@H](O)[C@H]2[C@H]3O[C@]4(O)O[C@@H]([C@@H](O)[C@@]2(N1)[C@@H]4O)[C@]3(O)CO`, for which the inhibition result in experiment [13], in experiment [14], in [15], in [16], in experiment [17] and in experiment [18] was “Active” throughout. Moreover, the inhibition entry in experiment [19] was “Active”.

On to `CCCCCCCCCC[C@H]1NC(=N)N[C@@]2(CCCO2)[C@H]1C(=O)O`, for which the inhibition entry in experiment [13] is “inactive”. Also, the inhibition entry in [7] is “Active”. For the same molecule, the IC50 in [8] worked out at 170 nM; in experiment [11], 26 nM. Moreover, the inhibition entry in [8] and in [11] was “Dose-dependent effect” throughout. This molecule also registered an EC50 in [10] of 5.3 nM.
